Laboratory results taken from patent US20090239757A1, “Control Sequences Responding to AMP and Uses Thereof” (priority 2004, published 2009).
Residues, ends and D or L forms follow the SMILES beside them.

Columns and labels:
[1] = system: Gram-positive and Gram-negative bacteria; conditions: U.S. Pat. No. 6,492,328; cited from earlier work
E. coli = assay: growth and killing of E. coli on induced expression of novispirin (Suicide Expression System); format: cell-based, Escherichia coli
From the text: In the examples below the method of the invention has been illustrated using novispirin as the antimicrobial peptide and E. coli as the host cell. To assess the sustained physiological response of E. coli to novispirin, an arabinose induction system was used to make E. coli produce novispirin at a sub-lethal rate. […] These categories comprise particularly genes related to membrane dysfunction, heat shock, phage shock and antimicrobial peptide defense.
A plasmid was constructed to investigate the transcriptional response of E. coli upon expressing Novispirin G10 in a Suicide Expression System (SES) setup. The SES takes advantage of conditionally expressing antimicrobial peptides in a sensitive host. The degree of inhibition in the host reflects the potency of the antimicrobial peptide (AMP) (WO200073433). In the current setup, the AMP is exported to the periplasmic space where it interacts with the inner and/or outer membrane of E. coli.
In order to obtain a transcriptional profile of E. coli expressing Novispirin G10, 2×10 mL sterile LB media (10 g/L Bactotryptone, 5 g/L Yeast extract, and 10 g/L NaCl) containing 100 mg/L ampicillin was inoculated with E. coli TOP10 harbouring pDRS5-novispirin and pBAD gIII A, respectively. These cultures were grown overnight at 37° C. at 180 rpm. […]

## CC[C@H](C)[C@H](NC(=O)CNC(=O)[C@H](CCCCN)NC(=O)[C@H](CCCNC(=N)N)NC(=O)[C@@H](NC(=O)[C@@H](NC(=O)[C@H](CCCNC(=N)N)NC(=O)[C@H](CCCNC(=N)N)NC(=O)[C@H](CC(C)C)NC(=O)[C@H](CC(N)=O)NC(=O)[C@@H](N)CCCCN)[C@@H](C)CC)[C@@H](C)CC)C(=O)N[C@@H](Cc1c[nH]cn1)C(=O)N[C@H](C(=O)N[C@H](C(=O)N[C@@H](CCCCN)C(=O)N[C@@H](CCCCN)C(=O)N[C@@H](Cc1ccc(O)cc1)C(=O)NCC(=O)O)[C@@H](C)CC)[C@@H](C)CC [Novispirin G10] (H-KNLRRIIRKGIHIIKKYG-OH; N-terminus assumed)
[1]
  antimicrobial activity: activity against both Gram-positive and Gram-negative bacteria
E. coli; arabinose induction, sub-lethal rate, growth was not completely inhibited
  growth rate on induction of novispirin expression: reduced the growth rate significantly
E. coli; expressed and exported to the periplasmic space, as opposed to adding purified peptide to a cell culture
  inhibition and killing of the host when the AMP is expressed: prolong the inhibition and delay killing
